Assay results from patent US8383618B2, “C2-fluoro substituted piperazine linked pyrrolo[2,1-C][1,4] benzodiazepine dimers and a process for the preparation thereof” (Council of Scientific & Industrial Research, priority 2008, dated 2013).
Like-named read-outs stand apart in the source and are kept apart here.

Assays:
[1] = test system: calf thymus (CT) DNA; assay: Thermal denaturation studies; type: binding; details: [PBD]:[DNA] molar ratio 1:5; CT-DNA 100 μM, ligand 20 μM; sodium phosphate buffer pH 7.00
Procedure: The DNA binding affinity of the C2-Fluoro substituted piperazine linked pyrrolo[2,1c][1,4]benzodiazepine dimers were subjected to thermal denaturation studies using calf thymus (CT) DNA (Jones, G. B.; Davey, C. L.; Jenkins, T. C.; Kamal, A.; Kneale, G. G.; Neidle, S.; Webster, G. D.; Thurston, D. E. Anti-cancer Drug Des. 1990, 5, 249. McConnaughie, A. W.; Jenkins, T. C. J. Med. Chem. 1995, 38, 3488). The studies for these compounds (IXa-f) were carried out by DNA/ligand molar ratio is 1:5 the increase in the helix melting temperature (ΔTm) for each compound was examined at 0 h. […] Data for DSB-120 and SJG-136 are included in Table-3 for comparison. The synthetic DC-81 dimer (DSB-120) gives a ΔTm 10.2° C. and SJC-136 gives a […]Tm of 25° C. under identical experimental condition.

[2] = test system: sixty human tumor cells derived from nine cancer types; assay: NCI in vitro anticancer screen (SRB), whole panel; type: cell-based; details: human tumor cell lines; 48 h drug exposure, SRB
Procedure: (§1) The above compounds were evaluated for in vitro anticancer activity against sixty human tumor cells derived from nine cancer types (leukemia, non small cell cancer, colon cancer CNS cancer, melanoma, ovarian cancer renal cancer, prostate cancer and breast cancer) as per NCI protocol. For each compound, dose response curves for each cell line were measured at a minimum of five concentrations at 10-fold dilution. A protocol of 48 h continuous drug exposure was used, and a sulforhodamine B (SRB) protein assay was used to estimate cell viability or growth. The concentration causing 50% cell growth inhibition (GI50), total cell growth inhibition (TGI, 0% growth) and 50% cell death (LC-50% growth) compared with the control was calculated.

[3] = test system: HL-60(TB); assay: NCI in vitro anticancer screen (SRB); type: cell-based, human; details: Leukemia, 48 h exposure
Procedure: as §1

[4] = test system: HS 578T; assay: NCI in vitro anticancer screen (SRB); type: cell-based, human; details: Breast, 48 h exposure
Procedure: as §1

[5] = test system: COLO 205; assay: NCI in vitro anticancer screen (SRB); type: cell-based, human; details: Colon, 48 h exposure
Procedure: as §1

[6] = test system: OVCAR-5; assay: NCI in vitro anticancer screen (SRB); type: cell-based, human; details: Ovarian, 48 h exposure
Procedure: as §1

[7] = test system: CCRF-CEM; assay: NCI in vitro anticancer screen (SRB); type: cell-based, human; details: Leukemia, 48 h exposure
Procedure: as §1

[8] = test system: A549/ATCC; assay: NCI in vitro anticancer screen (SRB); type: cell-based, human; details: Non-small cell lung, 48 h exposure
Procedure: as §1

[9] = test system: MCF7; assay: NCI in vitro anticancer screen (SRB); type: cell-based, human; details: Breast, 48 h exposure
Procedure: as §1

[10] = test system: A498; assay: NCI in vitro anticancer screen (SRB); type: cell-based, human; details: Renal, 48 h exposure
Procedure: as §1

[11] = test system: MDA-MB-435; assay: NCI in vitro anticancer screen (SRB); type: cell-based, human; details: Breast, 48 h exposure
Procedure: as §1

[12] = test system: OVCAR-8; assay: NCI in vitro anticancer screen (SRB); type: cell-based, human; details: Ovarian, 48 h exposure
Procedure: as §1

[13] = test system: SF-268; assay: NCI in vitro anticancer screen (SRB); type: cell-based, human; details: CNS, 48 h exposure
Procedure: as §1

[14] = test system: NCI-H460; assay: NCI in vitro anticancer screen (SRB); type: cell-based, human; details: Non-small cell lung, 48 h exposure
Procedure: as §1

[15] = test system: IGROV1; assay: NCI in vitro anticancer screen (SRB); type: cell-based, human; details: Ovarian, 48 h exposure
Procedure: as §1

[16] = test system: T-47D; assay: NCI in vitro anticancer screen (SRB); type: cell-based, human; details: Breast, 48 h exposure
Procedure: as §1

[17] = test system: BT-549; assay: NCI in vitro anticancer screen (SRB); type: cell-based, human; details: Breast, 48 h exposure
Procedure: as §1

[18] = test system: SNB-75; assay: NCI in vitro anticancer screen (SRB); type: cell-based, human; details: CNS, 48 h exposure
Procedure: as §1

[19] = test system: SK-OV-3; assay: NCI in vitro anticancer screen (SRB); type: cell-based, human; details: Ovarian, 48 h exposure
Procedure: as §1

[20] = test system: TK-10; assay: NCI in vitro anticancer screen (SRB); type: cell-based, human; details: Renal, 48 h exposure
Procedure: as §1

[21] = test system: SW-620; assay: NCI in vitro anticancer screen (SRB); type: cell-based, human; details: Colon, 48 h exposure
Procedure: as §1

[22] = test system: HOP-62; assay: NCI in vitro anticancer screen (SRB); type: cell-based, human; details: Non-small cell lung, 48 h exposure
Procedure: as §1

[23] = test system: M14; assay: NCI in vitro anticancer screen (SRB); type: cell-based, human; details: Melanoma, 48 h exposure
Procedure: as §1

[24] = test system: SNB-19; assay: NCI in vitro anticancer screen (SRB); type: cell-based, human; details: CNS, 48 h exposure
Procedure: as §1

[25] = test system: KM12; assay: NCI in vitro anticancer screen (SRB); type: cell-based, human; details: Colon, 48 h exposure
Procedure: as §1

[26] = test system: SR; assay: NCI in vitro anticancer screen (SRB); type: cell-based, human; details: Leukemia, 48 h exposure
Procedure: as §1

[27] = test system: HT29; assay: NCI in vitro anticancer screen (SRB); type: cell-based, human; details: Colon, 48 h exposure
Procedure: as §1

[28] = test system: OVCAR-3; assay: NCI in vitro anticancer screen (SRB); type: cell-based, human; details: Ovarian, 48 h exposure
Procedure: as §1

[29] = test system: RPMI-8226; assay: NCI in vitro anticancer screen (SRB); type: cell-based, human; details: Leukemia, 48 h exposure
Procedure: as §1

[30] = test system: DU-145; assay: NCI in vitro anticancer screen (SRB); type: cell-based, human; details: Prostate, 48 h exposure
Procedure: as §1

[31] = test system: HOP-92; assay: NCI in vitro anticancer screen (SRB); type: cell-based, human; details: Non-small cell lung, 48 h exposure
Procedure: as §1

[32] = test system: SK-MEL-5; assay: NCI in vitro anticancer screen (SRB); type: cell-based, human; details: Melanoma, 48 h exposure
Procedure: as §1

[33] = test system: NCI-H522; assay: NCI in vitro anticancer screen (SRB); type: cell-based, human; details: Non-small cell lung, 48 h exposure
Procedure: as §1

[34] = test system: UACC-62; assay: NCI in vitro anticancer screen (SRB); type: cell-based, human; details: Melanoma, 48 h exposure
Procedure: as §1

[35] = test system: 786-0; assay: NCI in vitro anticancer screen (SRB); type: cell-based, human; details: Renal, 48 h exposure
Procedure: as §1

[36] = test system: ACHN; assay: NCI in vitro anticancer screen (SRB); type: cell-based, human; details: Renal, 48 h exposure
Procedure: as §1

[37] = test system: NCI-H322M; assay: NCI in vitro anticancer screen (SRB); type: cell-based, human; details: Non-small cell lung, 48 h exposure
Procedure: as §1

[38] = test system: LOX IMVI; assay: NCI in vitro anticancer screen (SRB); type: cell-based, human; details: Melanoma, 48 h exposure
Procedure: as §1

[39] = test system: SK-MEL-28; assay: NCI in vitro anticancer screen (SRB); type: cell-based, human; details: Melanoma, 48 h exposure
Procedure: as §1

[40] = test system: CAKI-1; assay: NCI in vitro anticancer screen (SRB); type: cell-based, human; details: Renal, 48 h exposure
Procedure: as §1

[41] = test system: RXF 393; assay: NCI in vitro anticancer screen (SRB); type: cell-based, human; details: Renal, 48 h exposure
Procedure: as §1

[42] = test system: MOLT-4; assay: NCI in vitro anticancer screen (SRB); type: cell-based, human; details: Leukemia, 48 h exposure
Procedure: as §1

[43] = test system: SF-539; assay: NCI in vitro anticancer screen (SRB); type: cell-based, human; details: CNS, 48 h exposure
Procedure: as §1

[44] = test system: SN12C; assay: NCI in vitro anticancer screen (SRB); type: cell-based, human; details: Renal, 48 h exposure
Procedure: as §1

[45] = test system: HCT-116; assay: NCI in vitro anticancer screen (SRB); type: cell-based, human; details: Colon, 48 h exposure
Procedure: as §1

[46] = test system: HCC-2998; assay: NCI in vitro anticancer screen (SRB); type: cell-based, human; details: Colon, 48 h exposure
Procedure: as §1

[47] = test system: K-562; assay: NCI in vitro anticancer screen (SRB); type: cell-based, human; details: Leukemia, 48 h exposure
Procedure: as §1

[48] = test system: MALME-3M; assay: NCI in vitro anticancer screen (SRB); type: cell-based, human; details: Melanoma, 48 h exposure
Procedure: as §1

[49] = test system: U251; assay: NCI in vitro anticancer screen (SRB); type: cell-based, human; details: CNS, 48 h exposure
Procedure: as §1

[50] = test system: PC-3; assay: NCI in vitro anticancer screen (SRB); type: cell-based, human; details: Prostate, 48 h exposure
Procedure: as §1

[51] = test system: calf thymus (CT) DNA; details: [PBD]:[DNA] molar ratio 1:5; literature value; listed as SJC-136; cited from earlier work

COc1cc2c(cc1OCCCN1CCN(CCCOc3cc4c(cc3OC)C(=O)N3CC(F)(F)C[C@H]3C=N4)CC1)N=C[C@@H]1CC(F)(F)CN1C2=O [IXd, 1,1′-{[(bispropane-1,N-diyl)piperazine]dioxy}bis[(11aS)-2-2-difluoro-7-methoxy-1,2,3,11a-tetrahydro-5H-pyrrolo[2,1-c][1,4]benzodiazepine-5-one]]
ΔTm after incubation at 37° C. for 0 h [1]: 11.0 °C | Log10 GI50 mean graph midpoint (MG_MID) [2]: −5.41 | Log10 LC50 mean graph midpoint (MG_MID) [2]: −4.2 | Log10 TGI mean graph midpoint (MG_MID) [2]: −4.79 | GI50 [3]: 1.18 µM | GI50 [4]: 2.94 µM | GI50 [5]: 3.09 µM | GI50 [6]: 3.83 µM | GI50 [7]: 0.9 µM | GI50 [8]: 7.3 µM | GI50 [9]: 2.09 µM | GI50 [10]: 2.43 µM | GI50 [11]: 1.95 µM | GI50 [12]: 6.3 µM | GI50 [13]: 3.57 µM | GI50 [14]: 2.6 µM | GI50 [15]: 1.92 µM | GI50 [16]: 1.38 µM | GI50 [17]: 3.25 µM | GI50 [18]: 5.52 µM | GI50 [19]: 8.64 µM | GI50 [20]: 4.38 µM | GI50 [21]: 2.61 µM | GI50 [22]: 3.17 µM | GI50 [23]: 3.25 µM | GI50 [24]: 4.08 µM | GI50 [25]: 4.1 µM | GI50 [26]: 0.8 µM | GI50 [27]: 3.61 µM | GI50 [28]: 3.55 µM | GI50 [29]: 2.2 µM | GI50 [30]: 3.63 µM | GI50 [31]: 6.14 µM | GI50 [32]: 1.86 µM | GI50 [33]: 1.14 µM | GI50 [34]: 3.05 µM | GI50 [35]: 3.17 µM | GI50 [36]: 5.64 µM | GI50 [37]: 1.96 µM | GI50 [38]: 1.89 µM | GI50 [39]: 4.28 µM | GI50 [40]: 3.31 µM | GI50 [41]: 2.14 µM | GI50 [42]: 2.02 µM | GI50 [43]: 3 µM | GI50 [44]: 4.05 µM | GI50 [45]: 3.59 µM | GI50 [46]: 5.4 µM | GI50 [47]: 1.7 µM | GI50 [48]: 2.8 µM | GI50 [49]: 3.36 µM | GI50 [50]: 3.06 µM

COc1cc2c(cc1OCCCCN1CCN(CCCCOc3cc4c(cc3OC)C(=O)N3CC(F)(F)C[C@H]3C=N4)CC1)N=C[C@@H]1CC(F)(F)CN1C2=O [IXe, 1,1′-{[(bisbutane-1,N-diyl)piperazine]dioxy}bis[(11aS)-2-2-difluoro-7-methoxy-1,2,3,11a-tetrahydro-5H-pyrrolo[2,1-c][1,4]benzodiazepine-5-one]]
ΔTm after incubation at 37° C. for 0 h [1]: 14.0 °C

COc1cc2c(cc1OCCCCCN1CCN(CCCCCOc3cc4c(cc3OC)C(=O)N3CC(F)(F)C[C@H]3C=N4)CC1)N=C[C@@H]1CC(F)(F)CN1C2=O [IXf, 1,1′-{[(bispentane-1,N-diyl)piperazine]dioxy}bis[(11aS)-2-2-difluoro-7-methoxy-1,2,3,11a-tetrahydro-5H-pyrrolo[2,1-c][1,4]benzodiazepine-5-one]]
ΔTm after incubation at 37° C. for 0 h [1]: 13.0 °C

C=C1C[C@H]2C=Nc3cc(OCCCOc4cc5c(cc4OC)C(=O)N4CC(=C)C[C@H]4C=N5)c(OC)cc3C(=O)N2C1 [SJG-136]
ΔTm after incubation at 37° C. for 0 h [51]: 25 °C
